Some results are limits rather than exact numbers.

The test system of one assay is HTT mRNA. Briefly: Splicing RT-qPCR assay, HTT canonical (CJ) and alternative (AJ) junction mRNA. The following applies: Homo sapiens, A673 or K562 cells, 24 hours compound treatment; for IC50: 24 h, read-out: HTT CJ (IC50, decrease in canonical junction mRNA); for AC50: read-out: HTT AJ (AC50, increase in alternative junction mRNA). The assay is classed as cell-based, human. Here is the method:
(§1) Compounds described herein were used to modulate RNA transcript abundance in cells. The expression of a target mRNA was measured by detecting the formation of an exon-exon junction in the canonical transcript (CJ). A compound mediated exon-inclusion event was detected by observing an increase in formation of a new junction with an alternative exon (AJ). Real-time qPCR assays were used to detect these splicing switches and interrogate the potency of various compounds towards different target genes. A high-throughput real time quantitative PCR (RT-qPCR) assay was developed to measure these two isoforms of the mRNA (CJ and AJ) for exemplary genes, such as HTT, SMN2, and MYB, together with a control housekeeping gene, GAPDH or GUSB or PPIA, used for normalization. Briefly, the A673 or K562 cell line was treated with various compounds described herein (e.g., compounds of Formula (I)). After treatment, the levels of the HTT, MYB, or SMN2 mRNA targets were determined from each sample of cell lysate by cDNA synthesis followed by qPCR.
(§2) • Cells-to-CT 1-step kit: ThermoFisher A25602, Cells-to-CT lysis reagent: ThermoFisher 4391851C, TaqMan™ Fast Virus 1-Step Master Mix: ThermoFisher 4444436 • GAPDH: VIC-PL, ThermoFisher 4326317E (Assay: Hs99999905_m1)—used for K562/suspension cell lines • GUSB: VIC-PL, ThermoFisher 4326320E (Assay: Hs99999908_m1)—used for K562/suspension cell lines • PPIA: VIC-PL, ThermoFisher 4326316E (Assay: Hs99999904_m1)—used for A673/adherent cell lines
(§3) The A673 cell line was cultured in DMEM with 10% FBS. Cells were diluted with full growth media and plated in a 96-well plate (15,000 cells in 100 ul media per well). The plate was incubated at 37° C. with 5% CO2 for 24 hours to allow cells to adhere. An 11-point 3-fold serial dilution of the compounds was made in DMSO then diluted in media in an intermediate plate. Compounds were transferred from the intermediate plate to the cell plate with the top dose at a final concentration of 10 uM in the well. Final DMSO concentration was kept at or below 0.25%. The cell plate was returned to the incubator at 37° C. with 5% CO2 for an additional 24 hours.
(§4) The K562 cell line was cultured in IMDM with 10% FBS. For K562, cells were diluted with full growth media and plated in either a 96-well plate (50,000 cells in 50 uL media per well) or a 384-well plate (8,000-40,000 cells in 45 uL media per well). An 11-point 3-fold serial dilution of the compounds were made in DMSO then diluted in media in an intermediate plate. Compound was transferred from the intermediate plate to the cell plate with the top dose at a final concentration of 10 uM in the well. Final DMSO concentration was kept at or below 0.25%. Final volume was 100 uL for 96-well plate and 50 uL for 384-well plate. The cell plate was then placed in an incubator at 37° C. with 5% CO2 for 24 hours.
(§5) The cells were then gently washed with 50 uL-100 uL cold PBS before proceeding to addition of lysis buffer. 30 uL-50 uL of room temperature lysis buffer with DNAse I (and optionally RNAsin) was added to each well. Cells were shaken/mixed thoroughly at room temperature for 5-10 minutes for lysis to take place and then 3 uL-5 uL of room temperature stop solution was added and wells were shaken/mixed again. After 2-5 minutes, the cell lysate plate was transferred to ice for RT-qPCR reaction setup. The lysates could also be frozen at −80° C. for later use.
(§6) In some cases, a direct lysis buffer was used. An appropriate volume of 3× lysis buffer (10 mM Tris, 150 mM NaCl, 1.5%-2.5% Igepal and 0.1-1 U/uL RNAsin, pH 7.4) was directly added to either K562 or A673 cells in media and mixed by pipetting 3 times. The plates were then incubated at room temperature with shaking/rocking for 20-50 minutes to allow for lysis to take place. After this time, the cell lysate plate was transferred to ice to set up for the RT-qPCR reactions. The lysates could also be frozen at −80° C. for later use. […]
Background: Quantitative PCR measures a nucleic acid by following its amplification.

A further assay relates to MYB mRNA. Description: Splicing RT-qPCR assay, MYB canonical (CJ) and alternative (AJ) junction mRNA. It counts as cell-based, human. The following applies: Homo sapiens, 24 h, A673 or K562 cells, 24 hours compound treatment, RT-qPCR; for AC50: read-out: MYB AJ (AC50, increase in alternative junction mRNA); for IC50: read-out: MYB CJ (IC50, decrease in canonical junction mRNA). Here is the method: as §1, §2, §3, §4, §5, §6

Usually IC50 stands for the concentration that gives 50% inhibition. Broadly, the AC50 is the concentration giving half of the maximal activity seen. On to `CCn1cc2c(N3CC[C@H](NC)C3)cc(F)c(C(=O)Nc3cc(F)c4nc(C)cn4c3)c2n1` [Compound 478, 2-ethyl-6-fluoro-N-{8-fluoro-2-methylimidazo[1,2-a]pyridin-6-yl}-4-[(3S)-3-(methylamino)pyrrolidin-1-yl]indazole-7-carboxamide; bis(trifluoroacetic acid)], for which, in the assay on HTT mRNA, the IC50 was 1000 to 10000 nM and the AC50 is above 10000 nM. In the assay with MYB mRNA, the half-maximal activity concentration (AC50) lay in the range of 100 to 1000 nM and the IC50 is below 100 nM.

`CCn1cc2c(N3CC[C@@H](NC)C3)cc(F)c(C(=O)Nc3cc(F)c4nc(C)cn4c3)c2n1` [Compound 479, 2-ethyl-6-fluoro-N-{8-fluoro-2-methylimidazo[1,2-a]pyridin-6-yl}-4-[(3R)-3-(methylamino)pyrrolidin-1-yl]indazole-7-carboxamide; trifluoroacetic acid]: in the assay with HTT mRNA, the concentration for half-maximal inhibition (IC50) lay within 1000 to 10000 nM and the AC50 fell in the range of 1000 to 10000 nM. In the assay on MYB mRNA, the AC50 is below 100 nM and the IC50 is below 100 nM.

As to `CCn1cc2c(N3CCN(C)CC3)cc(F)c(C(=O)Nc3cc(F)c4nc(C)cn4c3)c2n1` [Compound 481, 2-ethyl-6-fluoro-N-{8-fluoro-2-methylimidazo[1,2-a]pyridin-6-yl}-4-(4-methylpiperazin-1-yl) indazole-7-carboxamide], in the assay on HTT mRNA, the IC50 is 100 to 1000 nM and the half-maximal activity concentration (AC50) lay within 1000 to 10000 nM. Moreover, in the assay with MYB mRNA, the AC50 lay within 100 to 1000 nM and the half-inhibitory concentration (IC50) was below 100 nM.

With `CCn1cc2c(N3CC4(CCCN4)C3)ccc(C(=O)Nc3cc(F)c4nc(C)cn4c3)c2n1` [Compound 482, 4-{2,5-diazaspiro[3.4]octan-2-yl}-2-ethyl-N-{8-fluoro-2-methylimidazo[1,2-a]pyridin-6-yl}indazole-7-carboxamide], in the assay with HTT mRNA, the IC50 is above 10000 nM and the AC50 was above 10000 nM. In the assay on MYB mRNA, the AC50 fell in the range of 1000 to 10000 nM and the half-inhibitory concentration (IC50) lay in the range of 1000 to 10000 nM.

Consider `Cc1cc(NC(=O)c2ccc(N3CCNCC3)c3cn(C)nc23)c(O)c2cn(C)nc12` [Compound 484, N-(4-hydroxy-2,7-dimethylindazol-5-yl)-2-methyl-4-(piperazin-1-yl) indazole-7-carboxamide], for which the concentration for half-maximal inhibition (IC50) in the assay with HTT mRNA and in the assay on MYB mRNA was above 10000 nM each time. Moreover, the half-maximal activity concentration (AC50) in the assay on HTT mRNA and in the assay on MYB mRNA was above 10000 nM in each case.

Regarding `Cc1cn2cc(NC(=O)c3ccc(N4CCOCC4)c4cn(C)nc34)cc(F)c2n1` [Compound 486, N-{8-fluoro-2-methylimidazo[1,2-a]pyridin-6-yl}-2-methyl-4-(morpholin-4-yl) indazole-7-carboxamide], the half-inhibitory concentration (IC50) with HTT mRNA and in the assay with MYB mRNA was 100 to 1000 nM each time. Further, the AC50 in the assay on HTT mRNA and in the assay on MYB mRNA was 100 to 1000 nM throughout.

On to `Cc1cn2cc(NC(=O)c3ccc(N4CCCC4)c4cn(C)nc34)cc(F)c2n1` [Compound 487, N-{8-fluoro-2-methylimidazo[1,2-a]pyridin-6-yl}-2-methyl-4-(pyrrolidin-1-yl) indazole-7-carboxamide], for which, in the assay with HTT mRNA, the IC50 fell in the range of 1000 to 10000 nM and the AC50 fell in the range of 1000 to 10000 nM. Besides, in the assay with MYB mRNA, the AC50 was in the range of 1000 to 10000 nM and the IC50 fell in the range of 1000 to 10000 nM.

For the compound `Cc1nnc2ccc(NC(=O)c3ccc(N4CCNCC4)c4cn(C)nc34)cn12` [Compound 488, 2-methyl-N-{3-methyl-[1,2,4]triazolo[4,3-a]pyridin-6-yl}-4-(piperazin-1-yl) indazole-7-carboxamide], in the assay on HTT mRNA, the IC50 was above 10000 nM and the AC50 was above 10000 nM. Besides, in the assay with MYB mRNA, the concentration at half-maximal activity (AC50) is above 10000 nM and the 50% inhibitory concentration (IC50) is above 10000 nM.

Consider `Cc1nc2cc(NC(=O)c3ccc(N4CCNCC4)c4cn(C)nc34)ccn2n1` [Compound 489, 2-methyl-N-{2-methyl-[1,2,4]triazolo[1,5-a]pyridin-7-yl}-4-(piperazin-1-yl) indazole-7-carboxamide], for which the half-inhibitory concentration (IC50) with HTT mRNA and in the assay on MYB mRNA was above 10000 nM each time. In addition, the AC50 in the assay with HTT mRNA and with MYB mRNA was above 10000 nM in each case.

For the compound `Cc1cn2cc(NC(=O)c3ccc(N4CCNCC4)c4c[nH]nc34)cc(F)c2n1` [Compound 490, N-{8-fluoro-2-methylimidazo[1,2-a]pyridin-6-yl}-4-(piperazin-1-yl)-2H-indazole-7-carboxamide], the IC50 with HTT mRNA is above 10000 nM; in the assay with MYB mRNA it was 1000 to 10000 nM. The AC50 in the assay with HTT mRNA is above 10000 nM; with MYB mRNA, 1000 to 10000 nM.

For the compound `CCn1cc2c(N3CC4(CCNC4)C3)ccc(C(=O)Nc3cc(F)c4nc(C)cn4c3)c2n1` [Compound 491, 4-{2,6-diazaspiro[3.4]octan-2-yl}-2-ethyl-N-{8-fluoro-2-methylimidazo[1,2-a]pyridin-6-yl}indazole-7-carboxamide], in the assay with HTT mRNA, the IC50 was in the range of 1000 to 10000 nM and the half-maximal activity concentration (AC50) is above 10000 nM. Moreover, in the assay with MYB mRNA, the half-maximal activity concentration (AC50) is 1000 to 10000 nM and the IC50 lay in the range of 100 to 1000 nM.

As to `CCn1cc2c(N3CC4(CCNCC4)C3)ccc(C(=O)Nc3cc(F)c4nc(C)cn4c3)c2n1` [Compound 492, 4-{2,7-diazaspiro[3.5]nonan-2-yl}-2-ethyl-N-{8-fluoro-2-methylimidazo[1,2-a]pyridin-6-yl}indazole-7-carboxamide], in the assay with HTT mRNA, the IC50 was in the range of 1000 to 10000 nM and the AC50 is above 10000 nM. In the assay with MYB mRNA, the AC50 fell in the range of 1000 to 10000 nM and the IC50 is 100 to 1000 nM.

For `CN1CCN(c2ccc(C(=O)Nc3cc(F)c4nc(CO)oc4c3)c3nn(C)cc23)CC1` [Compound 494, N-[4-fluoro-2-(hydroxymethyl)-1,3-benzoxazol-6-yl]-2-methyl-4-(4-methylpiperazin-1-yl) indazole-7-carboxamide], in the assay with HTT mRNA, the half-inhibitory concentration (IC50) is above 10000 nM and the concentration at half-maximal activity (AC50) was above 10000 nM. Besides, in the assay with MYB mRNA, the concentration at half-maximal activity (AC50) was above 10000 nM and the half-inhibitory concentration (IC50) was above 10000 nM.

`CO[C@H]1C[C@H](n2cc3c(N4CCNCC4)ccc(C(=O)Nc4cc(F)c5nc(C)cn5c4)c3n2)C1` [Compound 496, Cis-N-(8-fluoro-2-methylimidazo[1,2-a]pyridin-6-yl)-2-((1s,3s)-3-methoxycyclobutyl)-4-(piperazin-1-yl)-2H-indazole-7-carboxamide 2,2,2-trifluoroacetate]: in the assay with HTT mRNA, the IC50 is above 10000 nM and the AC50 is above 10000 nM. In the assay on MYB mRNA, the AC50 is above 10000 nM and the IC50 was above 10000 nM.

On to `Cc1cn2cc(NC(=O)c3ccc(N4CCNCC4)c4cn(CC5COC5)nc34)cc(F)c2n1` [Compound 497, N-{8-fluoro-2-methylimidazo[1,2-a]pyridin-6-yl}-2-(oxetan-3-ylmethyl)-4-(piperazin-1-yl) indazole-7-carboxamide], for which, in the assay with HTT mRNA, the IC50 fell in the range of 100 to 1000 nM and the AC50 is 100 to 1000 nM. For the same compound, in the assay on MYB mRNA, the AC50 is below 100 nM and the 50% inhibitory concentration (IC50) was below 100 nM.

For the compound `CCn1cc2c(OC3CCNC3)ccc(C(=O)Nc3cc(F)c4nc(C)cn4c3)c2n1` (stereo not shown) [Compound 498, 2-ethyl-N-{8-fluoro-2-methylimidazo[1,2-a]pyridin-6-yl}-4-(pyrrolidin-3-yloxy) indazole-7-carboxamide], in the assay on HTT mRNA, the 50% inhibitory concentration (IC50) was in the range of 100 to 1000 nM and the half-maximal activity concentration (AC50) fell in the range of 1000 to 10000 nM. In the assay on MYB mRNA, the AC50 was 100 to 1000 nM and the IC50 lay in the range of 100 to 1000 nM.

Values taken from patent US20250154169A1, “COMPOUNDS AND METHODS FOR MODULATING SPLICING” (REMIX THERAPEUTICS INC., priority 2021, published 2025).
